Measurements from US20240109900A1, “AZABICYCLIC SHP2 INHIBITORS” (IRBM S.P.A., priority 2021, published 2024).
Like-named read-outs stand apart in the source and are kept apart here.

How the values were obtained:
[1] = target: SHP-2 enzyme (Met1-Leu525) (Homo sapiens (Human), UniProt Q06124); assay: SHP2 inhibition enzymatic assay; format: biochemical; conditions: 0.5 nM SHP-2 activated by 500 nM IRS1 peptide, 75 μM DiFMUP substrate; read-out: SHP2wt-IC50
Outline: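 Compounds were preincubated 30 min with 0.5 nM SHP-2 (Met1-Leu525) plus 500 nM IRS1 activating peptide (pH 7.2 HEPES, 5 mM DTT), then 75 μM DiFMUP substrate reacted 30 min at room temperature. After bpV quench, DiFMUP fluorescence gave % inhibition; four-parameter logistic fit yielded IC50.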

[2] = test system: ERK phosphorylation in KYSE-520 cells; assay: Phospho-ERK cellular assay; format: cell-based; conditions: KYSE-520 cells, 2 h at 37° C., phospho-ERK1/2 (Thr202/Tyr204) TR-FRET, read-out: PERK IC50
Outline: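 TR-FRET read-out of ERK1/2 Thr202/Tyr204 phosphorylation was taken after overnight antibody incubation at room temperature. Before that, KYSE-520 cells were treated 2 h at 37 °C with compound dilutions and lysed 30 min. Percent inhibition relative to vehicle and cell-free wells was fitted four-parametrically to give IC50.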

Sequence of SHP-2 enzyme (Met1-Leu525) (Q06124 1-525): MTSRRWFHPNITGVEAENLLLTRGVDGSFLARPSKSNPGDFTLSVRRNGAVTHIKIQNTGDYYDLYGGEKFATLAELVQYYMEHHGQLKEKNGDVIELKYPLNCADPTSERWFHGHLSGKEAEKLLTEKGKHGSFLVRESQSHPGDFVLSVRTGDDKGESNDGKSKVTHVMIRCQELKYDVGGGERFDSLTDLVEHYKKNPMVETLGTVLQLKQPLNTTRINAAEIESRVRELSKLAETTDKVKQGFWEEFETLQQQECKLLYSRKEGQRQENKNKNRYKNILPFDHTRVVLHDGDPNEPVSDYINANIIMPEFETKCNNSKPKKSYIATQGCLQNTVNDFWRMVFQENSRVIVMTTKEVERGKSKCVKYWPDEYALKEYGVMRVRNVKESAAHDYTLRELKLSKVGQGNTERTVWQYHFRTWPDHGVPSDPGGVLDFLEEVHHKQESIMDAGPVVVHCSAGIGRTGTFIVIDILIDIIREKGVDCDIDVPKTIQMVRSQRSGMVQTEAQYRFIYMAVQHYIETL

IC50 [1] [µM]	IC50 [2] [µM]	IC50 ([2]; Homo sapiens, KYSE-520, 2 h) [µM]	Compound	IC50 ([2]; Homo sapiens) [µM]
< 0.5	–	< 1	Cc1csc(C2(CN)C3CCN(c4cnc5c(-c6cccnc6C(F)(F)F)n[nH]c5n4)CC32)n1 (centres unmarked) [Example 90, (7-(4-methylthiazol-2-yl)-3-(3-(2-(trifluoromethyl)pyridin-3-yl)-1H-pyrazolo[3,4-b]pyrazin-6-yl)-3-azabicyclo[4.1.0]heptan-7-yl)methanamine]	–
< 0.5	–	1 to 5	Cc1csc([C@@]2(CN)[C@@H]3CN(c4cnc5c(-c6cccc(Cl)c6Cl)n[nH]c5n4)CC[C@@H]32)n1 [Example 437, ((1R,6S,7R)-3-(3-(2,3-dichlorophenyl)-1H-pyrazolo[3,4-b]pyrazin-6-yl)-7-(4-methylthiazol-2-yl)-3-azabicyclo[4.1.0]heptan-7-yl)methanamine]	–
< 0.5	–	< 1	Cc1c(-c2n[nH]c3nc(N4CC[C@@H]5[C@H](C4)[C@@]5(CN)c4ccccc4F)cnc23)ccc2[nH]c(=O)[nH]c12 [Example 259, 5-(6-((1S,6R,7R)-7-(aminomethyl)-7-(2-fluorophenyl)-3-azabicyclo[4.1.0]heptan-3-yl)-1H-pyrazolo[3,4-b]pyrazin-3-yl)-4-methyl-1,3-dihydro-2H-benzo[d]imidazol-2-one]	–
< 0.5	< 1	–	Cc1csc(C2(CN)[C@@H]3CN(c4cnc5c(-c6ccc7c(cnn7C)c6Cl)n[nH]c5n4)C[C@@H]32)n1 (some centres unmarked) [Example 480]	–
< 0.5	–	< 1	NC[C@]1(c2ccccc2)[C@@H]2CN(c3cnc4c(-c5cc(F)c6ncccc6c5)n[nH]c4n3)C[C@@H]21 [Example 455, ((1R,5S,6s)-3-(3-(8-fluoroquinolin-6-yl)-1H-pyrazolo[3,4-b]pyrazin-6-yl)-6-phenyl-3-azabicyclo[3.1.0]hexan-6-yl)methanamine]	–
< 0.5	–	> 5	CN(C#N)C(=O)c1ccc(-c2n[nH]c3nc(N4CC[C@@H]5[C@H](C4)[C@@]5(CN)c4ccccc4F)cnc23)c(Cl)c1 [Example 356, 4-(6-((1S,6R,7R)-7-(aminomethyl)-7-(2-fluorophenyl)-3-azabicyclo[4.1.0]heptan-3-yl)-1H-pyrazolo[3,4-b]pyrazin-3-yl)-3-chloro-N-cyano-N-methylbenzamide]	–
< 0.5	< 1	–	Cc1csc([C@@]2(CN)[C@@H]3CN(c4cnc5c(-c6ccc(C(N)=O)cc6Cl)n[nH]c5n4)C[C@@H]32)n1 [Example 512]	–
< 0.5	–	< 1	Cc1cc([C@@]2(CN)[C@@H]3CCN(c4cnc5c(-c6ccnc7cc(F)ccc67)n[nH]c5n4)C[C@@H]32)no1 [Example 45, ((1S,6R,7S)-3-(3-(7-fluoroquinolin-4-yl)-1H-pyrazolo[3,4-b]pyrazin-6-yl)-7-(5-methylisoxazol-3-yl)-3-azabicyclo[4.1.0]heptan-7-yl)methanamine]	–
< 0.5	–	< 1	NC[C@]1(c2ccccc2F)[C@@H]2CCN(c3cnc4c(-c5ccc(C(N)=O)cc5Cl)n[nH]c4n3)C[C@@H]21 [Example 276, 4-(6-((1S,6R,7R)-7-(aminomethyl)-7-(2-fluorophenyl)-3-azabicyclo[4.1.0]heptan-3-yl)-1H-pyrazolo[3,4-b]pyrazin-3-yl)-3-chlorobenzamide]	–
< 0.5	< 1	–	Cc1csc([C@@]2(CN)[C@@H]3CN(c4cnc5c(-c6ccc7nn(C(F)F)cc7c6Cl)n[nH]c5n4)C[C@@H]32)n1 [Example 466]	–
< 0.5	–	< 1	NC[C@]1(c2ccccc2F)[C@@H]2CCN(c3cnc4c(-c5ccc6ncccc6c5)n[nH]c4n3)C[C@@H]21 [Example 141, ((1S,6R,7R)-7-(2-fluorophenyl)-3-(3-(quinolin-6-yl)-1H-pyrazolo[3,4-b]pyrazin-6-yl)-3-azabicyclo[4.1.0]heptan-7-yl)methanamine]	–
< 0.5	–	< 1	NC[C@@]1(c2ccccc2F)C2CCN(c3ccc4nc(Sc5ccnc(N)c5Cl)ccc4n3)CC21 (stereo in doubt) [Example 387, 4-((6-((1R,6S,7S)-7-(aminomethyl)-7-(2-fluorophenyl)-3-azabicyclo[4.1.0]heptan-3-yl)-1,5-naphthyridin-2-yl)thio)-3-chloropyridin-2-amine]	–
< 0.5	–	< 1	CC(=O)Oc1c(F)cc(-c2n[nH]c3nc(N4CC[C@@H]5[C@H](C4)[C@@]5(CN)c4ccccc4F)cnc23)cc1F [Example 359, 4-(6-((1S,6R,7R)-7-(aminomethyl)-7-(2-fluorophenyl)-3-azabicyclo[4.1.0]heptan-3-yl)-1H-pyrazolo[3,4-b]pyrazin-3-yl)-2,6-difluorophenyl acetate]	–
< 0.5	–	> 5	NC[C@]1(c2ccccc2F)[C@@H]2CCN(c3cnc4c(-c5ccc(-c6nn[nH]n6)cc5Cl)n[nH]c4n3)C[C@@H]21 [Example 285, ((1S,6R,7R)-3-(3-(2-chloro-4-(2H-tetrazol-5-yl)phenyl)-1H-pyrazolo[3,4-b]pyrazin-6-yl)-7-(2-fluorophenyl)-3-azabicyclo[4.1.0]heptan-7-yl)methanamine]	–

Continued, molecule first:

Compound	IC50 [1] [µM]	IC50 [2] [µM]	IC50 ([2]; Homo sapiens, KYSE-520, 2 h) [µM]	IC50 ([2]; Homo sapiens) [µM]
Cc1csc([C@@]2(CN)[C@@H]3CN(c4cnc5c(-c6ccc7nn(CC(F)(F)F)cc7c6Cl)n[nH]c5n4)C[C@@H]32)n1 [Example 518]	< 0.5	< 1	–	–
Cc1c(-c2n[nH]c3nc(N4CC[C@@H]5[C@H](C4)[C@@]5(CN)c4ccccc4F)cnc23)ccc2c1nnn2C [Example 204, ((1S,6R,7R)-3-(3-(1,4-dimethyl-1H-benzo[d][1,2,3]triazol-5-yl)-1H-pyrazolo[3,4-b]pyrazin-6-yl)-7-(2-fluorophenyl)-3-azabicyclo[4.1.0]heptan-7-yl)methanamine]	< 0.5	–	< 1	–
Cc1cc([C@@]2(CN)[C@@H]3CN(c4cnc5c(-c6ccc7nn(C)cc7c6Cl)n[nH]c5n4)C[C@@H]32)no1 [Example 275, ((1R,5S,6r)-3-(3-(4-chloro-2-methyl-2H-indazol-5-yl)-1H-pyrazolo[3,4-b]pyrazin-6-yl)-6-(5-methylisoxazol-3-yl)-3-azabicyclo[3.1.0]hexan-6-yl)methanamine]	< 0.5	< 1	–	–
Cc1cccc([C@@]2(CN)[C@@H]3CN(c4cnc5c(-c6ccc7nn(C)cc7c6Cl)n[nH]c5n4)C[C@@H]32)n1 [Example 496, ((1R,5S,6r)-3-(3-(4-chloro-2-methyl-2H-indazol-5-yl)-1H-pyrazolo[3,4-b]pyrazin-6-yl)-6-(6-methylpyridin-2-yl)-3-azabicyclo[3.1.0]hexan-6-yl)methanamine]	< 0.5	–	< 1	–
CCn1cc2c(Cl)c(-c3n[nH]c4nc(N5CC[C@@H]6[C@H](C5)[C@@]6(CN)c5ccccc5F)cnc34)ccc2n1 [Example 208, ((1S,6R,7R)-3-(3-(4-chloro-2-ethyl-2H-indazol-5-yl)-1H-pyrazolo[3,4-b]pyrazin-6-yl)-7-(2-fluorophenyl)-3-azabicyclo[4.1.0]heptan-7-yl)methanamine]	< 0.5	–	< 1	–
Cn1cnc2ccc(-c3ccc4nc(N5CC[C@@H]6[C@H](C5)[C@@]6(CN)c5cc(F)ccc5F)cnc4n3)cc21 [Example 527, ((1S,6R,7R)-7-(2,5-difluorophenyl)-3-(6-(1-methyl-1H-benzo[d]imidazol-6-yl)pyrido[2,3-b]pyrazin-2-yl)-3-azabicyclo[4.1.0]heptan-7-yl)methanamine]	< 0.5	–	1 to 5	–
Cc1csc([C@@]2(CN)[C@@H]3CN(c4cnc5c(-c6ccc7nn(C)cc7c6Cl)n[nH]c5n4)C[C@@H]32)n1 [Example 457, ((1R,5S,6r)-3-(3-(4-chloro-2-methyl-2H-indazol-5-yl)-1H-pyrazolo[3,4-b]pyrazin-6-yl)-6-(4-methylthiazol-2-yl)-3-azabicyclo[3.1.0]hexan-6-yl)methanamine]	< 0.5	–	< 1	–
NC[C@]1(c2ccccc2)[C@@H]2CN(c3cnc(Sc4cccnc4C(F)(F)F)c(N)n3)C[C@@H]21 [Example 104, 6-((1R,5S,6s)-6-(aminomethyl)-6-phenyl-3-azabicyclo[3.1.0]hexan-3-yl)-3-((2-(trifluoromethyl)pyridin-3-yl)thio)pyrazin-2-amine]	< 0.5	–	–	> 5
COc1c2c(Cl)c(-c3n[nH]c4nc(N5CC[C@@H]6[C@H](C5)[C@@]6(CN)c5cc(C)on5)cnc34)ccc2nn1C [Example 109, ((1S,6R,7S)-3-(3-(4-chloro-3-methoxy-2-methyl-2H-indazol-5-yl)-1H-pyrazolo[3,4-b]pyrazin-6-yl)-7-(5-methylisoxazol-3-yl)-3-azabicyclo[4.1.0]heptan-7-yl)methanamine]	< 0.5	–	< 1	–
NCC1(c2ncccn2)C2CCN(c3nc4nc(Sc5cccnc5C(F)(F)F)cnc4[nH]3)CC21 (centres unmarked) [Example 66, (7-(pyrimidin-2-yl)-3-(5-((2-(trifluoromethyl)pyridin-3-yl)thio)-1H-imidazo[4,5-b]pyrazin-2-yl)-3-azabicyclo[4.1.0]heptan-7-yl)methanamine]	< 0.5	–	< 1	–
NC[C@]1(c2ccccc2F)[C@@H]2CCN(c3ncc(Sc4ccnc(N)c4Cl)n4cncc34)C[C@@H]21 [Example 135, 4-((8-((1S,6R,7R)-7-(aminomethyl)-7-(2-fluorophenyl)-3-azabicyclo[4.1.0]heptan-3-yl)imidazo[1,5-a]pyrazin-5-yl)thio)-3-chloropyridin-2-amine]	> 3	–	> 5	–
